System in the first data set: not listed separately
Briefly: Weight change of nude mice during anti-tumor (MCF-7) test (toxicity). Conditions: 10 mg/kg PO, QD; nude mice. The class given is in vivo. The method, then:
(§1) As shown in FIGURE and the table below, 21 days after the nude mouse was administered with Tamoxifen (20 mg/kg), the weight dropped by 20%, and a higher dose of 30 mg/kg of an exemplary compound of the present application, shown below as CT-946-01, led to a weight gain of 7%.
Take `CC/C(=C(\c1ccc(O)cc1)c1ccc(OCCN2CCOCC2)nc1)c1ccccc1` [CT-946-01]: the “BW (% of vehicle)” value was 104 % of vehicle.

The same data set, now with this note: 20 mg/kg PO, QD; nude mice.
For `CC/C(=C(\c1ccccc1)c1ccc(OCCN(C)C)cc1)c1ccccc1` [Tamoxifen, reference compound], the “BW (% of vehicle)” value was 80.0 % of vehicle.

The data set is the same for the next values; noted with them: 20 mg/kg; 21 days after administration; nude mouse.
As for `CC/C(=C(\c1ccccc1)c1ccc(OCCN(C)C)cc1)c1ccccc1` [Tamoxifen, reference compound], the weight dropped came out at 20%.

Staying with this data set, now noted: 30 mg/kg PO, QD; nude mice.
On to `CC/C(=C(\c1ccc(O)cc1)c1ccc(OCCN2CCOCC2)nc1)c1ccccc1` [CT-946-01], for which the “BW (% of vehicle)” value is on record as 107 % of vehicle.

Staying with this data set, now noted: 30 mg/kg; 21 days after administration; nude mouse.
As to `CC/C(=C(\c1ccc(O)cc1)c1ccc(OCCN2CCOCC2)nc1)c1ccccc1` [CT-946-01], the weight gain turned out to be 7%.

In a further data set the test system is MCF-7. Briefly: Anti-tumor (MCF-7) test in nude mice. The class given is in vivo. The settings on record: 10 mg/kg PO, QD. The method, then:
as §1
For `CC/C(=C(\c1ccc(O)cc1)c1ccc(OCCN2CCOCC2)nc1)c1ccccc1` [CT-946-01], the “TGI (%) 21 days” value is on record as 108%.

The data set is the same for the next values; noted with them: 20 mg/kg PO, QD.
With `CC/C(=C(\c1ccccc1)c1ccc(OCCN(C)C)cc1)c1ccccc1` [Tamoxifen, reference compound], the “TGI (%) 21 days” value worked out at 22.4%.

Still in this data set, the particulars now being: 30 mg/kg PO, QD.
For the compound `CC/C(=C(\c1ccc(O)cc1)c1ccc(OCCN2CCOCC2)nc1)c1ccccc1` [CT-946-01], the “TGI (%) 21 days” value was 104%.

A further data set concerns MCF-7 cells. The data set is described as follows: In vitro growth inhibitory potency of anti-estrogen activity in MCF-7 cells. It counts as cell-based, human. Conditions: Homo sapiens, MCF7, 168 h; in the presence of E2, 7 days, Cell Titre Glo. The procedure: In Vitro Growth Inhibitory Potency of Anti-Estrogen Activity in MCF-7 Cells:
The estrogen receptor α (ERα) high expression human breast cancer MCF-7 cells (#HTB-22, A.T.C.C.) were cultured in DMEM medium supplemented by 10% fetal bovine serum (Gibco®) and 10 μg/ml bovine insulin (Sigma®). The cells were maintained in 75 cm^2 cell culture flask (Corning®) filled with 15 ml medium, 95% air and 5% CO2. Cells were split twice a week in a single layer cell culture.
For experiments related to 17β-Estradiol (E2), cells at logarithm growing stage were pretreated for two days without E2, the phenol red DMEM medium was replaced by the phenol red free DMEM/F12 medium, and FBS was replaced by 10% charcoal stripped FBS to remove the steroid and greatly decrease the hormone levels. Cells were seeded in 96 well cell culture plates (Corning®) with 4×10^3/well density, cultured in E2 free DMEM/F12 medium at 37° C. for 24 hours, 95% air and 5% CO2. All the compounds were stocked in DMSO as 0.01 M, serial diluted by the culture medium and added to the cells in the presence of proper E2 concentration. The final concentrations of compounds and DMSO were 3×10^−10˜1×10^−5 M and 0.1%. Cells were incubated at 37° C. for 7 days, medium containing E2 and compounds were changed every two days to maintain the chemical activity.
7 Days later, the viable cell numbers were calculated by the ATP amount from the luciferase quantity measurement (Cell Titre Glo® luciferase kit, Promega®). This method can be used to evaluate the stimulating estrogenicity of estrogen dependent cell growth under the condition of E2 free. The estrogenicity was tested by percentage compared to the maximum growth stimulation (100%) by E2. In this study, the percentage antagonist effects were evaluated by compared to the complete inhibition (100%) at the dose of 1×10^−5 M. The inhibition curves were generated by the reading numbers with the program Prism® 5, IC50 values were calculated.
For orientation: IC50 means the concentration needed to halve the response being measured. Take `CC/C(=C(\c1ccc(O)cc1)c1ccc(OCCNC)cc1)C1CCC(=O)CC1`: the 50% inhibitory concentration (IC50) was < 100 nM.
Take `CC/C(=C(\c1ccc(O)cc1)c1ccc(OCCN2CCCC2)nc1)c1ccccc1`: the IC50 was < 100 nM.
For `CCC(=C(c1ccc(O)cc1)c1ccc(OCCNC)cc1)c1ccc2occc2c1`, the IC50 is < 100 nM.
Same read-out and setting: the figure for `CCC(=C(c1ccc(O)cc1)c1ccc(CCCN2CCCC2)cc1)c1ccccc1` is < 100 nM.
In the case of `CCC(=C(c1ccc(O)cc1)c1ccc(OCCN(C)C)cn1)c1ccccc1`, the 50% inhibitory concentration (IC50) is < 500 nM.
As for `CCC(=C(c1ccc(O)cc1)c1ccc(OCCN(C)C)cc1)c1ccc2oc(Cl)cc2c1`, the IC50 was < 100 nM.
Consider `CCC(=C(c1ccc(O)cc1)c1ccc(SCCNC)nc1)c1ccc2oc(Cl)cc2c1`, for which the IC50 is < 100 nM.
Consider `CC/C(=C(\c1ccc(O)cc1)c1ccc(OCCN2CCCCC2)nc1)c1ccccc1`, for which the IC50 was < 100 nM.
The same measure, in the same setting: with `CC/C(=C(\c1ccc(O)cc1)c1ccc(OCCNC)nc1)c1ccccc1` the figure was < 100 nM; with `CCC(=C(c1ccc(O)cc1)c1ccc(C#CCN2CCCC2)c(F)c1)c1ccccc1`, < 100 nM; with `CCC(=C(c1ccc(O)cc1)c1ccc(OCCNC)cc1)c1ccc2c(c1)CCO2`, < 100 nM.
For `CC/C(=C(/c1ccc(O)cc1)c1ccc(OCCNC)cc1)c1ccc(O)c(F)c1`, the IC50 was < 500 nM.
As for `CC/C(=C(\c1ccc(OC)cc1)c1ccc(OCCNC)cc1)c1ccc2oc(Cl)cc2c1`, the IC50 was < 500 nM.
In the case of `CCC(=C(c1ccc(O)cc1)c1ccc(OC2CCNC2)cc1)c1ccccc1` (centres unmarked), the IC50 is < 100 nM.
As to `CCC(=C(c1ccc(O)cc1)c1ccc(O[C@@H]2CCNC2)cc1)c1ccccc1`, the 50% inhibitory concentration (IC50) was < 100 nM.
Take `CCC(=C(c1ccc(O)cc1)c1ccc(N(C)CCNC)nc1)c1ccc2oc(Cl)cc2c1`: the half-maximal inhibitory concentration (IC50) is < 100 nM.
For the compound `CCC(=C(c1ccc(O)cc1)c1ccc(OCCNC)cc1)c1ccc(O)c(OC)c1`, the IC50 was < 500 nM.
Turning to `CCC(=C(c1ccc(O)cc1)c1ccn(CCCN(C)C)c(=O)c1)c1ccccc1`, the IC50 was < 500 nM.
For `CCC(=C(c1ccc(O)cc1)c1ccc(OCCNC)c(Br)c1)c1ccccc1`, the concentration for half-maximal inhibition (IC50) was < 100 nM.
Turning to `CCC(=C(c1ccc(O)cc1)c1ccc(CCCNC)cc1)c1ccccc1`, the concentration for half-maximal inhibition (IC50) is < 100 nM.
On to `CCC(=C(c1ccc(O)cc1)c1ccc(OCCNC)nc1)c1ccc2oc(Cl)cc2c1`, for which the half-inhibitory concentration (IC50) is < 100 nM.
For the compound `CC/C(=C(/c1ccc(O)cc1)c1ccc(OCCNC)cc1)c1ccc2oc(Cl)cc2c1`, the IC50 was < 100 nM.
For the compound `CCC(=C(c1ccc(O)cc1)c1ccc(CCCN(C)C)nc1)c1ccccc1`, the half-inhibitory concentration (IC50) was < 100 nM.
Same read-out and setting: with `CNCCOc1ccc(C(=C(CCCl)c2ccc3c(c2)CCO3)c2ccc(O)cc2)cc1` the figure was < 100 nM; with `CCNCCOc1ccc(C(=C(CC)c2ccc3oc(Cl)cc3c2)c2ccc(O)cc2)cc1`, < 100 nM; with `CCC(=C(c1ccc(O)cc1)c1ccc(OCC2CCCN2C)cc1)c1ccccc1` (centres unmarked), < 100 nM.
As to `CCC(=C(c1ccc(O)cc1)c1ccc(OC[C@@H]2CCCN2)cc1)c1ccccc1`, the concentration for half-maximal inhibition (IC50) is < 100 nM.
With `CCC(=C(c1ccc(O)cc1)c1ccc(OCCN(CC)CC)cc1)c1ccc2oc(Cl)cc2c1`, the half-inhibitory concentration (IC50) is < 100 nM.
With `CCC(=C(c1ccc(O)cc1)c1ccc(OCCN2CCNCC2)cc1)c1ccc2oc(Cl)cc2c1`, the IC50 is < 100 nM.
As for `CCC(=C(c1ccc(O)cc1)c1ccc(OCCN2CCN(C)CC2)cc1)c1ccc2oc(Cl)cc2c1`, the IC50 was < 100 nM.
`CC/C(=C(\c1ccc(O)cc1)c1ccc(OCCNC)cc1)c1ccc(O)c(F)c1`: the half-maximal inhibitory concentration (IC50) was < 500 nM.
On to `CC/C(=C(\c1ccc(O)cc1)c1ccc(OCCN2CCN(C)CC2)nc1)c1ccccc1`, for which the IC50 is < 100 nM.
Regarding `CC/C(=C(/c1ccc(O)cc1)c1ccc(N(C)CCNC)nc1)c1ccccc1`, the half-inhibitory concentration (IC50) was < 100 nM.
Consider `CCC(=C(c1ccc(O)cc1)c1ccc(CCCN2CCCC2)nc1)c1ccccc1`, for which the half-maximal inhibitory concentration (IC50) was < 100 nM.
Consider `CC/C(=C(\c1ccc(O)cc1)c1ccc(OCCNC)cc1)c1ccc2[nH]ncc2c1`, for which the half-inhibitory concentration (IC50) was < 100 nM.
The same measure, in the same setting: the figure for `CCC(=C(c1ccc(O)cc1)c1ccc(OCCN2CCCCCC2)cc1)c1ccc2oc(Cl)cc2c1` is < 100 nM.
Same read-out and setting: the figure for `CC/C(=C(\c1ccc(O)cc1)c1ccc(SCCNC)nc1)c1ccccc1` is < 100 nM.
With `CCC(=C(c1ccc(O)cc1)c1ccc(CCCNC)nc1)c1ccccc1`, the half-inhibitory concentration (IC50) was < 100 nM.
As for `CCC(=C(c1ccc(OCCNC)cc1)c1ccc(O)c(F)c1)c1ccccc1`, the IC50 was < 100 nM.
In the case of `CCC(=C(c1ccc(O)cc1)c1ccc(OCCNC)nc1)c1ccc2c(c1)CCO2`, the IC50 was < 100 nM.
With `CCC(=C(c1ccc(O)cc1)c1ccc(OCCNC)cc1)c1ccsc1`, the half-maximal inhibitory concentration (IC50) was < 100 nM.
Same read-out and setting: the figure for `CCC(=C(c1ccc(O)cc1)c1ccc(OCCNC)cc1)c1ccc2oc(Cl)cc2c1` [drawing 331] is < 100 nM; for `CCC(=C(c1ccc(O)cc1)c1ccc(CCCN2CCCC2)nc1)c1ccc2oc(Cl)cc2c1` it is < 100 nM.
Consider `CCC(=C(c1ccc(O)cc1)c1ccc(OCCNC)cc1)C1CCC(O)CC1` (centres unmarked), for which the 50% inhibitory concentration (IC50) was < 500 nM.
For `CC/C(=C(\c1ccc(O)cc1)c1ccc(OCCN(C)C)nc1)c1ccccc1`, the half-inhibitory concentration (IC50) was < 100 nM.
As for `CCC(=C(c1ccc(O)cc1)c1ccc(OCCN2CCCC2)cc1)c1ccc2oc(Cl)cc2c1`, the half-inhibitory concentration (IC50) was < 100 nM.
Regarding `CCC(=C(c1ccc(O)cc1)c1ccc(OCCN2CCOCC2)cc1)c1ccc2oc(Cl)cc2c1`, the IC50 is < 100 nM.
On the same count and under the same terms, the figure for `CC/C(=C(\c1ccc(O)cc1)c1ccc(OC2CCNC2)nc1)c1ccccc1` (centres unmarked) is < 100 nM.
As for `CCC(=C(c1ccc(O)cc1)c1ccc(OCCN2CCCCC2)cc1)c1ccc2oc(Cl)cc2c1`, the IC50 is < 100 nM.
Regarding `CC/C(=C(/c1ccc(O)cc1)c1ccc(OCCNC)cc1)c1csc(Cl)c1`, the IC50 was < 500 nM.
In the case of `CCC(=C(c1ccc(O)cc1)c1ccc(OCCNC)c(F)c1)c1ccc2c(c1)CCO2`, the half-inhibitory concentration (IC50) is < 100 nM.
Regarding `CC/C(=C(/c1ccc(O)cc1)c1ccc(OCCNC)nc1)c1ccccc1`, the concentration for half-maximal inhibition (IC50) was < 100 nM.
Same read-out and setting: with `CC/C(=C(\c1ccc(O)cc1)c1ccc(OCCN2CCOCC2)nc1)c1ccccc1` [drawing 318] the figure was < 100 nM.
Still for that read-out and setting: the figure for `CCC(=C(c1ccc(O)cc1)c1ccc(OCCNC)cc1)c1ccc2nsnc2c1` is < 100 nM.
Turning to `CCC(=C(c1ccc(O)cc1)c1ccc(OCCNC)c(F)c1)c1ccccc1`, the IC50 was < 100 nM.
In the case of `CC/C(=C(/c1ccc(O)cc1)c1ccc(OCCNC)cc1)c1ccc2[nH]ncc2c1`, the IC50 was < 100 nM.

Still in this data set, the particulars now being: in the presence of E2, 7 days, Cell Titre Glo.
Regarding `CCC(=C(c1ccc(O)cc1)c1ccc(OCCNC)cc1)c1ccc2oc(Cl)cc2c1` [drawing 303], the IC50 is < 100 nM.

The values above are taken from patent publication US9309211B2, “Arylalkene derivatives and use thereof as selective estrogen receptor modulators” (Centaurus BioPharma Co., Ltd., priority 2011, dated 2016).
